The record followed here is article PMC11984924, “Dipeptidic Phosphonates: Potent Inhibitors of Pseudomonas aeruginosa Elastase B Showing Efficacy in a Murine Keratitis Model” (Advanced Science, 2025).

The structures appear in SMILES notation.

For one test, the target named is T1, LasB (Pseudomonas aeruginosa, UniProt Q02RJ6).
T1 construct: made in house
T1 sequence (Q02RJ6 198-498): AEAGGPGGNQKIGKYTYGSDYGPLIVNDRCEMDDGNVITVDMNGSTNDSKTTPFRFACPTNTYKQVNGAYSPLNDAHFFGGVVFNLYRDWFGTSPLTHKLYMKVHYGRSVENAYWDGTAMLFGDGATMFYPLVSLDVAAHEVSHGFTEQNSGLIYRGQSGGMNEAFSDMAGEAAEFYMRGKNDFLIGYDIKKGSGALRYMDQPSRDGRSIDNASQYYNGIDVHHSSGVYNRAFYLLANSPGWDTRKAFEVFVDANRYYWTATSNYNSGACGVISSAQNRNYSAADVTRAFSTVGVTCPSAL
The test is described as follows: In vitro LasB inhibition assay. It counts as biochemical. Conditions: IC50 LasB inhibition. The procedure: 3.1 In vitro inhibition assays
LasB was expressed and purified as described previously.[3] In vitro inhibition assays (LasB,
MMPs, TACE). All in vitro inhibition assays were performed as described previously.[10] […]
Fluorescence signals were measured using a CLARIOstar plate reader (BMG
Labtech, Ortenberg, Germany). […]
As a reminder, the IC50 is the concentration needed to halve the response being measured. The compound `COc1ccc(NC(=O)[C@@H](NC(=O)C(CC(C)C)P(=O)(O)O)C(C)C)cc1` (stereo partly shown) [compound 33] gave an IC50 of 0.0199 ± 0.0008 µM.
For `CC(C)CC(C(=O)N[C@H](C(=O)Nc1ccc(Cl)cc1)C(C)C)P(=O)(O)O` (stereo partly shown) [compound 27], the IC50 was determined as 0.009 ± 0.0004 µM.
`CC(C)CC(C(=O)N[C@H](C(=O)Nc1cccc(Cl)c1)C(C)C)P(=O)(O)O` (stereo partly shown) [compound 28]: the IC50 stood at 0.282 ± 0.013 µM.
`CC(=O)c1ccc(NC(=O)[C@@H](NC(=O)[C@H](CC(C)C)P(=O)(O)O)C(C)C)cc1` [(S)‐30] registered an IC50 of 0.129 ± 0.004 µM.
The compound `COC[C@H](NC(=O)[C@@H](CC(C)C)P(=O)(O)O)C(=O)Nc1ccc(Cl)c(Cl)c1` [(R)‐18] showed an IC50 of 0.0867 ± 0.0036 µM.
The compound `CC(C)C[C@@H](C(=O)N[C@H](C(=O)Nc1ccc(-n2ccnc2)cc1)C(C)C)P(=O)(O)O` [(S)‐36] returned an IC50 of 0.417 ± 0.014 µM.
In turn, `CC(C)CC(C(=O)N[C@H](C(=O)Nc1ccc(C(F)(F)F)cc1)C(C)C)P(=O)(O)O` (stereo partly shown) [compound 29] had an IC50 of 0.0152 ± 0.0003 µM.
The compound `CC(C)CC(C(=O)N[C@H](C(=O)Nc1ccc(OC(C)C)cc1)C(C)C)P(=O)(O)O` (stereo partly shown) [compound 34] registered a concentration for half-maximal inhibition (IC50) of 0.0567 ± 0.002 µM.
In turn, `CC(C)CC(C(=O)N[C@H](C(=O)Nc1ccc(Oc2ccccc2)cc1)C(C)C)P(=O)(O)O` (stereo partly shown) [compound 35] displayed an IC50 of 0.008 ± 0.0003 µM.
Compound `Cc1ccc(NC(=O)[C@@H](NC(=O)C(CC(C)C)P(=O)(O)O)C(C)C)cc1` (stereo partly shown) [compound 32] yielded an IC50 of 0.0129 ± 0.0004 µM.
Regarding `COC[C@H](NC(=O)[C@H](CC(C)C)P(=O)(O)O)C(=O)Nc1ccc(Cl)c(Cl)c1` [(S)‐18], the IC50 is 0.197 ± 0.0054 µM.
With `CC(C)CC(C(=O)N[C@H](C(=O)Nc1ccc(Cl)c(Cl)c1)C1CC1)P(=O)(O)O` (stereo partly shown) [compound 12], the IC50 is 0.0288 ± 0.0008 µM.
The compound `CC(C)CC(C(=O)N[C@H](C(=O)Nc1ccc(N2CCOCC2)cc1)C(C)C)P(=O)(O)O` (stereo partly shown) [compound 37] displayed an IC50 of 0.0837 ± 0.0021 µM.
`CC(C)CC(C(=O)N[C@H](CC(=O)Nc1ccc(Cl)c(Cl)c1)C(C)C)P(=O)(O)O` (stereo partly shown) [compound 11]: the IC50 was found to be 2.72 ± 0.055 µM.
Same read-out and setting: in the case of `CC(C)CC(C(=O)N[C@@H](C(=O)Nc1ccc(Cl)c(Cl)c1)C(C)C)P(=O)(O)O` (stereo partly shown) [compound 10] it was 0.0113 ± 0.0004 µM.

The same test, now with this note: alanine versus glycine dipeptide 7.
Take `CC(C)CC(C(=O)N[C@@H](C)C(=O)Nc1ccc(Cl)c(Cl)c1)P(=O)(O)O` (stereo partly shown) [compound 8]: the “fold increase in activity” value is on record as 28 fold.

Still in this test, the particulars now being: bulkier residues.
In the case of `CC(C)CC(C(=O)N[C@@H](CC1CCOCC1)C(=O)Nc1ccc(Cl)c(Cl)c1)P(=O)(O)O` (stereo partly shown) [compound 20], the “fold loss in inhibition” value was “over 48 fold”.
Still for that read-out and setting: in the case of `CC(C)CC(C(=O)N[C@@H](CC1CCCCC1)C(=O)Nc1ccc(Cl)c(Cl)c1)P(=O)(O)O` (stereo partly shown) [compound 19] it was “over 48 fold”.

The test is the same for the next values; noted with them: compared to 9.
With `CC(C)CC(C(=O)N[C@H](C(=O)Nc1ccc(N2CCOCC2)cc1)C(C)C)P(=O)(O)O` (stereo partly shown) [compound 37], the “fold decrease in activity compared to 9” value stood at 16 fold.

The test is the same for the next values; noted with them: compared to thiol-based hit 4.
As for `CC(C)CC(C(=O)Nc1ccc(C(F)(F)F)cc1)P(=O)(O)O` (stereo not shown) [compound 5, reference compound], the “fold enhancement in IC50 compared to the original hit” value amounted to 18 fold.

Still in this test, the particulars now being: read-out: IC50 LasB inhibition.
As for `CC(C)C[C@H](C(=O)N[C@@H](Cc1cccnc1)C(=O)Nc1ccc(Cl)c(Cl)c1)P(=O)(O)O` [(R)‐25], the IC50 was found to be 0.574 ± 0.016 µM.
`CC(C)CC(C(=O)N[C@@H](CC1CC1)C(=O)Nc1ccc(Cl)c(Cl)c1)P(=O)(O)O` (stereo partly shown) [compound 16]: the concentration for half-maximal inhibition (IC50) worked out at 0.0271 ± 0.0009 µM.
Turning to `CC[C@H](C)[C@H](NC(=O)C(CC(C)C)P(=O)(O)O)C(=O)Nc1ccc(Cl)c(Cl)c1` (stereo partly shown) [compound 15], the IC50 was 0.0131 ± 0.0005 µM.
In the case of `CC(C)CC(C(=O)N[C@@H](CC1CCOCC1)C(=O)Nc1ccc(Cl)c(Cl)c1)P(=O)(O)O` (stereo partly shown) [compound 20], the half-inhibitory concentration (IC50) is 0.379 ± 0.008 µM.
On to `CC(C)CC(C(=O)N[C@@H](C)C(=O)Nc1ccc(Cl)c(Cl)c1)P(=O)(O)O` (stereo partly shown) [compound 8], for which the IC50 is 0.0617 ± 0.0016 µM.
For the compound `CC(C)CC(C(=O)N[C@@H](CC(C)C)C(=O)Nc1ccc(Cl)c(Cl)c1)P(=O)(O)O` (stereo partly shown) [compound 17], the IC50 worked out at 0.0594 ± 0.0017 µM.
The same measure, in the same setting: the result for `CC(C)CC(C(=O)N[C@H](C(=O)Nc1ccc(Cl)c(Cl)c1)c1ccccc1)P(=O)(O)O` (stereo partly shown) [compound 22] reads 0.0996 ± 0.0025 µM.
Turning to `CC(C)CC(C(=O)N[C@@H](Cc1ccccc1)C(=O)Nc1ccc(Cl)c(Cl)c1)P(=O)(O)O` (stereo partly shown) [compound 23], the half-inhibitory concentration (IC50) amounted to 0.426 ± 0.048 µM.
